Read-outs that look alike come from different tables or passages of the source.
Assays:
E. coli DH5α/pLBII = assay: Broth microdilution MIC assay, empty vector control strain; type: cell-based; conditions: Escherichia coli, read-out: E. coli DH5α/pLBII Microbiological Activity (MIC)
Procedure: (§1) To determine the ability of test compounds to potentiate the inhibition of the growth of bacterial strains, classic cell based broth microdilution MIC assays were employed. MIC assays are performed according to CLSI methods except where otherwise noted (CLSI, 2011 and CLSI, 2009). The reference strain S. aureus ATCC 29213 and the hyper-permeable E. coli 901C were used to determine the ability of the PBP compounds to inhibit bacterial growth. Briefly, cryo-preserved bacterial cultures of clinical strains are streaked for isolation on appropriate agar medium, in this case Mueller Hinton II agar. Following incubation to allow formation of colonies these plates are sealed with parafilm and stored refrigerated for up to two weeks. For preparation of assay inocula and to ensure low variability, at least 5 colonies are picked from the agar plates with an inoculating loop and aseptically transferred to a culture tube containing 3 mL of Mueller-Hinton Broth (supplemented with divalent cations to required levels based on Manufacturers' certification). The broth culture is grown for 3-5 hours at 37° C. with shaking at 200 rpm. Meanwhile, 2-fold serial dilutions of test compounds are conducted in a 96 well plate with a final volume of 75 μL per well at 2-fold the final desired concentration. After the dilution plates are set up the growing cultures are then diluted in a cuvette containing MH II broth and the optical density is measured at 600 nm. Inocula are diluted such that 75 μL of this culture in Mueller-Hinton Broth results in a starting bacterial concentration of 5×10^5 CFU/mL when added to the dilution plates. The plates are incubated 16-20 hours at 37° C. The MIC is read visually as the lowest concentration well with no bacterial growth.
(§2) To determine if test compounds were affected by CTX-M15, the most abundant extended spectrum β-lactamase in clinical settings worldwide, the inhibition of the growth of an engineered strain of Escherichia coli harboring CTX-M15 was tested. This strain was constructed by cloning the gene encoding CTX-M15 into the NdeI and BamHI restriction endonuclease sites of plasmid pLBII, placing the gene(s) under the control of the Lac promoter. The constructed expression plasmid for CTX-M15 was used to transform competent E. coli DH5a cells to make the engineered strain, including an empty pLBII vector control strain. The classic cell based broth microdilution MIC assay was employed as described above with the addition of control antibiotics, known to be degraded by β-lactamases (Ceftazidime, piperacillin and piperacillin+tazobactam).

[1] = system: E. coli DH5α/pLBII-CTX-M15; assay: Broth microdilution MIC assay, engineered strain producing CTX-M15; type: cell-based, Escherichia coli; conditions: for MIC: Escherichia coli, read-out: E. coli DH5α/pLBII-CTX-M15 Microbiological Activity (MIC); for MIC in the CTX-M15 producer compared with the parent strain with the empty pLBII plasmid: comparison in words
Procedure: as §1, §2

[2] = system: hyper-permeable E. coli 901C; assay: Broth microdilution MIC assay; type: cell-based; conditions: Escherichia coli, read-out: E. coli 901C MIC
Procedure: as §1

S. aureus ATCC 29213 = assay: Broth microdilution MIC assay; type: cell-based; conditions: Staphylococcus aureus
Procedure: as §1

[3] = ATCC29213, broth microdilution, 16-20 hours at 37° C., read-out: S. aureus 29213 MIC

Molecule `Nc1nc(CC(=O)NC(C(=O)N[C@H]2Cc3cccc(C(=O)O)c3OB2O)c2csc(N)n2)cs1` (stereo partly drawn) [Example 22, (3R)-3-(2-(2-aminothiazol-4-yl)-2-(2-(2-aminothiazol-4-yl)acetamido)acetamido)-2-hydroxy-3,4-dihydro-2H-benzo[e][1,2]oxaborinine-8-carboxylic acid] has an MIC (E. coli DH5α/pLBII) of 128 to 256 µg/mL, an MIC [1] of 128 to 256 µg/mL and an MIC [2] of less than 64 µg/mL. The MIC (S. aureus ATCC 29213; [3]) was 64 to 128 µg/mL.

In the case of `Nc1nc(C(NC(=O)N2CCOCC2)C(=O)N[C@H]2Cc3cccc(C(=O)O)c3OB2O)cs1` (stereo partly drawn) [Example 18, (3R)-3-(2-(2-aminothiazol-4-yl)-2-(morpholine-4-carboxamido)acetamido)-2-hydroxy-3,4-dihydro-2H-benzo[e][1,2]oxaborinine-8-carboxylic acid], the MIC (E. coli DH5α/pLBII) is reported as 128 to 256 µg/mL, the MIC [1] is reported as 128 to 256 µg/mL and the MIC [2] is reported as less than 64 µg/mL. For the same molecule, the MIC (S. aureus ATCC 29213; [3]) was greater than 128 µg/mL.

`COc1ccc(C(=O)NC(C(=O)N[C@H]2Cc3cccc(C(=O)O)c3OB2O)c2csc(N)n2)c(=O)[nH]1` (stereo partly drawn) [Example 46, (3R)-3-(2-(2-aminothiazol-4-yl)-2-(6-methoxy-2-oxo-1,2-dihydropyridine-3-carboxamido)acetamido)-2-hydroxy-3,4-dihydro-2H-benzo[e][1,2]oxaborinine-8-carboxylic acid] was tested, and the MIC (E. coli DH5α/pLBII) was 128 to 256 µg/mL, the MIC [1] was 128 to 256 µg/mL and the MIC [2] was less than 64 µg/mL. It also gave an MIC (S. aureus ATCC 29213; [3]) greater than 128 µg/mL.

Work on `CCN1CCN(C(=O)N[C@@H](C)C(=O)N[C@H]2Cc3cccc(C(=O)O)c3OB2O)C(=O)C1=O` [Example 31, (R)-3-((S)-2-(4-Ethyl-2,3-dioxopiperazine-1-carboxamido)propanamido)-2-hydroxy-3,4-dihydro-2H-benzo[e][1,2]oxaborinine-8-carboxylic acid] yielded an MIC (E. coli DH5α/pLBII) greater than 512 µg/mL, an MIC [1] greater than 512 µg/mL and an MIC [2] greater than 128 µg/mL. For the same molecule, the MIC (S. aureus ATCC 29213; [3]) was greater than 128 µg/mL.

For `Cc1cc(C)n2c1C=C1C=CC(CCC(=O)NCCON=C(C(=O)N[C@H]3Cc4cccc(C(=O)O)c4OB3O)c3csc(N)n3)=[N+]1[B-]2(F)F` [Example 13, (R)-3-(2-(2-aminothiazol-4-yl)-2-((2-(3-(5,5-difluoro-7,9-dimethyl-5H-4λ^4,5λ^4-dipyrrolo[1,2-c:2′,1′-f][1,3,2]diazaborinin-3-yl)propanamido)ethoxy)imino)acetamido)-2-hydroxy-3,4-dihydro-2H-benzo[e][1,2]oxaborinine-8-carboxylic acid], the MIC (E. coli DH5α/pLBII) was greater than 512 µg/mL, the MIC [1] was greater than 512 µg/mL and the MIC [2] was greater than 128 µg/mL. For the same molecule, the MIC (S. aureus ATCC 29213; ATCC29213, read-out: S. aureus 29213 MIC) was greater than 128 µg/mL.

`CCN1CCN(C(=O)N[C@H](CO)C(=O)N[C@H]2Cc3cccc(C(=O)O)c3OB2O)C(=O)C1=O` [Example 35, (R)-3-((R)-2-(4-Ethyl-2,3-dioxopiperazine-1-carboxamido)-3-hydroxy-propanamido)-2-hydroxy-3,4-dihydro-2H-benzo[e][1,2]oxaborinine-8-carboxylic acid] showed an MIC (E. coli DH5α/pLBII) of 32 to 64 µg/mL, an MIC [1] of 32 to 64 µg/mL and an MIC [2] of less than 64 µg/mL. For the same molecule, the MIC (S. aureus ATCC 29213; [3]) was greater than 128 µg/mL.

Work on `Nc1nc(C(NS(=O)(=O)N2CCOCC2)C(=O)N[C@H]2Cc3cccc(C(=O)O)c3OB2O)cs1` (stereo partly drawn) [Example 24, (3R)-3-(2-(2-aminothiazol-4-yl)-2-(morpholine-4-sulfonamido)acetamido)-2-hydroxy-3,4-dihydro-2H-benzo[e][1,2]oxaborinine-8-carboxylic acid] yielded an MIC (E. coli DH5α/pLBII) of 128 to 256 µg/mL, an MIC [1] of 128 to 256 µg/mL and an MIC [2] of less than 64 µg/mL. For the same molecule, the MIC (S. aureus ATCC 29213; [3]) was greater than 128 µg/mL.

For `CC(C)(O/N=C(\C(=O)N[C@@H]1C(=O)N2C(C(=O)[O-])=C(C[n+]3ccccc3)CS[C@H]12)c1csc(N)n1)C(=O)O` [ceftazidime, reference compound], the MIC (E. coli DH5α/pLBII) was less than 1 µg/mL, the MIC [1] was 8 to 16 µg/mL and the “MIC in the CTX-M15 producer compared with the parent strain with the empty pLBII plasmid” value [1] was “weaker MICs”.

In the case of `NCC1CCCN(C(=O)NC(C(=O)N[C@H]2Cc3cccc(C(=O)O)c3OB2O)c2csc(N)n2)C1` (stereo partly drawn) [Example 76, (3R)-3-(2-(3-(aminomethyl)piperidine-1-carboxamido)-2-(2-aminothiazol-4-yl)acetamido)-2-hydroxy-3,4-dihydro-2H-benzo[e][1,2]oxaborinine-8-carboxylic acid], the MIC [2] is reported as 64 to 128 µg/mL and the MIC (S. aureus ATCC 29213; [3]) is reported as greater than 128 µg/mL.

Work on `CCN1CCN(C(=O)NC(C(=O)N[C@H]2Cc3cccc(C(=O)O)c3OB2O)C(C)c2ccccc2)C(=O)C1=O` (stereo partly drawn) [Example 84, (3R)-3-(2-(4-ethyl-2,3-dioxopiperazine-1-carboxamido)-3-phenylbutanamido)-2-hydroxy-3,4-dihydro-2H-benzo[e][1,2]oxaborinine-8-carboxylic acid] yielded an MIC [1] of 128 to 256 µg/mL, an MIC [2] of less than 64 µg/mL and an MIC (S. aureus ATCC 29213; [3]) of 64 to 128 µg/mL.

`CCN1CCN(C(=O)N[C@H](C(=O)N[C@H]2Cc3cccc(C(=O)O)c3OB2O)C(O)c2ccccc2)C(=O)C1=O` (single isomer, unassigned) [Example 81] showed an MIC [2] greater than 128 µg/mL and an MIC (S. aureus ATCC 29213; [3]) greater than 128 µg/mL.

With `CC(=O)N1CCN(C(=O)NC(C(=O)N[C@H]2Cc3cccc(C(=O)O)c3OB2O)c2csc(N)n2)C1=O` (stereo partly drawn) [Example 71, (3R)-3-(2-(3-acetyl-2-oxoimidazolidine-1-carboxamido)-2-(2-aminothiazol-4-yl)acetamido)-2-hydroxy-3,4-dihydro-2H-benzo[e][1,2]oxaborinine-8-carboxylic acid] the MIC [2] was less than 64 µg/mL and the MIC (S. aureus ATCC 29213; [3]) was 64 to 128 µg/mL.

`CS(=O)(=O)N1CCC(C(=O)NC(C(=O)N[C@H]2Cc3cccc(C(=O)O)c3OB2O)c2csc(N)n2)CC1` (stereo partly drawn) [Example 70, (3R)-3-(2-(2-aminothiazol-4-yl)-2-(1-(methylsulfonyl)piperidine-4-carboxamido)acetamido)-2-hydroxy-3,4-dihydro-2H-benzo[e][1,2]oxaborinine-8-carboxylic acid] gave an MIC [2] of less than 64 µg/mL and an MIC (S. aureus ATCC 29213; [3]) greater than 128 µg/mL.

`Nc1nc(C(NC(=O)NCC(=O)O)C(=O)N[C@H]2Cc3cccc(C(=O)O)c3OB2O)cs1` (stereo partly drawn) [Example 90, (3R)-3-(2-(2-aminothiazol-4-yl)-2-(3-(carboxymethyl)ureido)acetamido)-2-hydroxy-3,4-dihydro-2H-benzo[e][1,2]oxaborinine-8-carboxylic acid] was tested, and the MIC [1] was 128 to 256 µg/mL, the MIC [2] was less than 64 µg/mL and the MIC (S. aureus ATCC 29213; [3]) was greater than 128 µg/mL.

`NCC1CCN(C(=O)NC(C(=O)N[C@H]2Cc3cccc(C(=O)O)c3OB2O)c2csc(N)n2)CC1` (stereo partly drawn) [Example 75, (3R)-3-(2-(4-(aminomethyl)piperidine-1-carboxamido)-2-(2-aminothiazol-4-yl)acetamido)-2-hydroxy-3,4-dihydro-2H-benzo[e][1,2]oxaborinine-8-carboxylic acid] gave an MIC [2] of less than 64 µg/mL and an MIC (S. aureus ATCC 29213; [3]) greater than 128 µg/mL.

`Nc1nc(C(NC(=O)CCB(O)O)C(=O)N[C@H]2Cc3cccc(C(=O)O)c3OB2O)cs1` (stereo partly drawn) [Example 89, (3R)-3-(2-(2-aminothiazol-4-yl)-2-(3-boronopropanamido)acetamido)-2-hydroxy-3,4-dihydro-2H-benzo[e][1,2]oxaborinine-8-carboxylic acid] showed an MIC [1] of 128 to 256 µg/mL, an MIC [2] greater than 128 µg/mL and an MIC (S. aureus ATCC 29213; [3]) greater than 128 µg/mL.

`CCN1CCN(C(=O)N[C@@H](C(=O)N[C@H]2Cc3cccc(C(=O)O)c3OB2O)C(O)c2ccccc2)C(=O)C1=O` (single isomer, unassigned) [Example 80] showed an MIC [2] of less than 64 µg/mL and an MIC (S. aureus ATCC 29213; [3]) of 64 to 128 µg/mL.

Work on `COC(=O)CCNC(=O)NC(C(=O)N[C@H]1Cc2cccc(C(=O)O)c2OB1O)c1csc(N)n1` (stereo partly drawn) [Example 88, (3R)-3-(2-(2-aminothiazol-4-yl)-2-(3-(3-methoxy-3-oxopropyl)ureido)acetamido)-2-hydroxy-3,4-dihydro-2H-benzo[e][1,2]oxaborinine-8-carboxylic acid] yielded an MIC [1] of 128 to 256 µg/mL, an MIC [2] of less than 64 µg/mL and an MIC (S. aureus ATCC 29213; [3]) greater than 128 µg/mL.

With `CCN1CCN(C(=O)N[C@@H](C(=O)N[C@@H]2C(=O)N3[C@@H]2SC(C)(C)[C@@H]3C(=O)O)c2ccccc2)C(=O)C1=O` [piperacillin, reference compound] the MIC (E. coli DH5α/pLBII) was less than 1 µg/mL, the MIC [1] was 128 to 256 µg/mL and the “MIC in the CTX-M15 producer compared with the parent strain with the empty pLBII plasmid” value [1] was “weaker MICs”.

`Nc1nc(C(NCC(=O)O)C(=O)N[C@H]2Cc3cccc(C(=O)O)c3OB2O)cs1` (stereo partly drawn) [Example 10, (3R)-3-(2-(2-aminothiazol-4-yl)-2-((carboxymethyl)amino)acetamido)-2-hydroxy-3,4-dihydro-2H-benzo[e][1,2]oxaborinine-8-carboxylic acid] showed an MIC (S. aureus ATCC 29213; [3]) greater than 128 µg/mL.

Work on `Nc1nc(C(NC(=O)NCCC(=O)O)C(=O)N[C@H]2Cc3cccc(C(=O)O)c3OB2O)cs1` (stereo partly drawn) [Example 87, (3R)-3-(2-(2-aminothiazol-4-yl)-2-(3-(2-carboxyethyl)ureido)acetamido)-2-hydroxy-3,4-dihydro-2H-benzo[e][1,2]oxaborinine-8-carboxylic acid] yielded an MIC [1] of 128 to 256 µg/mL, an MIC [2] of 64 to 128 µg/mL and an MIC (S. aureus ATCC 29213; [3]) greater than 128 µg/mL.

— patent US11332485B2, “Penicillin-binding protein inhibitors” (priority 2017, dated 2022)
